O=c1c2ccccc2nc2n1CCc1c-2[nH]c2ccccc12
solubility (mole fraction)
Details	283.15 K	288.15 K	293.15 K	298.15 K	303.15 K	308.15 K	313.15 K	318.15 K	323.15 K
in acetone	0.00069	0.00079	0.000929	0.00106	0.00122	0.00139	0.00158	0.0018	0.00205
in ethanol	0.000132	0.00016	0.000191	0.000229	0.000271	0.00032	0.000375	0.00044	0.000509
in isopropanol	7.46e-05	9.8e-05	0.000124	0.00016	0.000201	0.000257	0.000318	0.000396	0.000488
in methanol	6.1e-05	7.33e-05	8.79e-05	0.000105	0.000125	0.000148	0.000172	0.000201	0.000234
in water	1.45e-09	2.02e-09	2.84e-09	3.97e-09	5.49e-09	7.6e-09	1.04e-08	1.38e-08	1.85e-08

From BigSolDB 2.1
